Results reported in patent US20170190671A1, “BIS(ARYL)CATECHOL DERIVATIVES AS HERBICIDES” (E I DU PONT DE NEMOURS AND COMPANY, priority 2014, published 2017).

Columns and labels:
Assay in all cases: Test E preemergence
Type in all cases: in vivo
Settings in all cases: scale 0 to 100
[1] = tested on: Brazilian crabgrass (Digitaria horizontalis)
Description: (§1) Seeds of plant species selected from corn (Zea mays), soybean (Glycine max), velvetleaf (Abutilon theophrasti), cocklebur (common cocklebur, Xanthium strumarium), lambsquarters (Chenopodium album), wild poinsettia (Euphorbia heterophylla), palmer pigweed (Amaranthus palmeri), waterhemp (common waterhemp, Amaranthus rudis), surinam grass (Brachiaria decumbens), large (Lg) crabgrass (Digitaria sanguinalis), Brazilian crabgrass (Digitaria horizontalis), fall panicum (Panicum dichotomiflorum), giant foxtail (Setaria faberii), green foxtail (Setaria viridis), goosegrass (Eleusine indica), johnsongrass (Sorghum halepense), ragweed (common ragweed, Ambrosia elatior), barnyardgrass (Echinochloa crus-galli), sandbur (southern sandbur, Cenchrus echinatus), arrowleaf sida (Sida rhombifolia), Italian ryegrass (Lolium multiflorum), dayflower (Virginia (VA) dayflower, Commelina virginica), field bindweed (Convolvulus arvensis), morningglory (Ipomoea coccinea), nightshade (eastern black nightshade, Solanum ptycanthum), kochia (Kochia scoparia), yellow nutsedge (Cyperus esculentus), horseweed (Conyza canadensis), and hairy beggarticks (Bidens pilosa), were planted into a silt loam soil and treated preemergence with test chemicals formulated in a non-phytotoxic solvent mixture which included a surfactant.
(§2) At the same time, plants from these crop and weed species and also waterhemp_RES1, (ALS & Triazine resistant common waterhemp, Amaranthus rudis), and waterhemp_RES2, (ALS & HPPD resistant common waterhemp, Amaranthus rudis) were planted in pots containing Redi-Earth® planting medium (Scotts Company, 14111 Scottslawn Road, Marysville, Ohio 43041) comprising spaghnum peat moss, vermiculite, wetting agent and starter nutrients were treated with postemergence applications of test chemicals formulated in the same manner. Plants ranged in height from 2 to 18 cm for postemergence treatments (1- to 4-leaf stage). Treated plants and controls were maintained in a greenhouse for 14 to 21 days, after which time all species were compared to controls and visually evaluated. Plant response ratings, summarized in Table E, are based on a scale of 0 to 100 where 0 is no effect and 100 is complete control. A dash (-) response means no test result.

[2] = tested on: yellow nutsedge (Cyperus esculentus)
Description: as §1, §2

[3] = tested on: dayflower (Virginia (VA) dayflower, Commelina virginica)
Description: as §1, §2

[4] = tested on: nightshade (eastern black nightshade, Solanum ptycanthum)
Description: as §1, §2

[5] = tested on: large (Lg) crabgrass (Digitaria sanguinalis)
Description: as §1, §2

[6] = tested on: morningglory (Ipomoea coccinea)
Description: as §1, §2

[7] = tested on: fall panicum (Panicum dichotomiflorum)
Description: as §1, §2

[8] = tested on: Italian ryegrass (Lolium multiflorum)
Description: as §1, §2

[9] = tested on: lambsquarters (Chenopodium album)
Description: as §1, §2

[10] = tested on: sandbur (southern sandbur, Cenchrus echinatus)
Description: as §1, §2

[11] = tested on: waterhemp (common waterhemp, Amaranthus rudis)
Description: as §1, §2

kochia (Kochia scoparia) = tested on: kochia (Kochia scoparia)
Description: as §1, §2

[12] = tested on: field bindweed (Convolvulus arvensis)
Description: as §1, §2

[13] = tested on: goosegrass (Eleusine indica)
Description: as §1, §2

[14] = tested on: arrowleaf sida (Sida rhombifolia)
Description: as §1, §2

[15] = tested on: barnyardgrass (Echinochloa crus-galli)
Description: as §1, §2

[16] = tested on: ragweed (common ragweed, Ambrosia elatior)
Description: as §1, §2

[17] = tested on: palmer pigweed (Amaranthus palmeri)
Description: as §1, §2

[18] = tested on: green foxtail (Setaria viridis)
Description: as §1, §2

[19] = tested on: hairy beggarticks (Bidens pilosa)
Description: as §1, §2

[20] = tested on: Surinam grass (Brachiaria decumbens)
Description: as §1, §2

## Fc1cccc(Oc2ncc(Cl)cn2)c1Oc1ncc(Cl)cn1 [Compound 21, 2,2′-[[3-fluoro-1,2-phenylene]bis(oxy)]bis[5-chloropyrimidine]]
[1]; 16 g ai/ha
  Plant response rating, Crabgrass, Brazil: 0
[1]; 31 g ai/ha
  Plant response rating, Crabgrass, Brazil: 65
[1]; 62 g ai/ha
  Plant response rating, Crabgrass, Brazil: 100
[1]; 125 g ai/ha
  Plant response rating, Crabgrass, Brazil: 100
[2]; 16 g ai/ha
  Plant response rating, Nutsedge, Yellow: 0
[2]; 31 g ai/ha
  Plant response rating, Nutsedge, Yellow: 0
[2]; 62 g ai/ha
  Plant response rating, Nutsedge, Yellow: 0
[2]; 125 g ai/ha
  Plant response rating, Nutsedge, Yellow: 15
[3]; 16 g ai/ha
  Plant response rating, Dayflower, VA: 0
[3]; 31 g ai/ha
  Plant response rating, Dayflower, VA: 0
[3]; 62 g ai/ha
  Plant response rating, Dayflower, VA: 25
[3]; 125 g ai/ha
  Plant response rating, Dayflower, VA: 95
[4]; 16 g ai/ha
  Plant response rating, Nightshade: 80
[4]; 31 g ai/ha
  Plant response rating, Nightshade: 90
[4]; 62 g ai/ha
  Plant response rating, Nightshade: 98
[4]; 125 g ai/ha
  Plant response rating, Nightshade: 100
[5]; 16 g ai/ha
  Plant response rating, Crabgrass, Large: 50
[5]; 31 g ai/ha
  Plant response rating, Crabgrass, Large: 75
[5]; 62 g ai/ha
  Plant response rating, Crabgrass, Large: 95
[5]; 125 g ai/ha
  Plant response rating, Crabgrass, Large: 100
[6]; 16 g ai/ha
  Plant response rating, Morningglory: 10
[6]; 31 g ai/ha
  Plant response rating, Morningglory: 50
[6]; 62 g ai/ha
  Plant response rating, Morningglory: 90
[6]; 125 g ai/ha
  Plant response rating, Morningglory: 80
[7]; 16 g ai/ha
  Plant response rating, Panicum, Fall: 35
[7]; 31 g ai/ha
  Plant response rating, Panicum, Fall: 75
[7]; 62 g ai/ha
  Plant response rating, Panicum, Fall: 100
[7]; 125 g ai/ha
  Plant response rating, Panicum, Fall: 100
[8]; 16 g ai/ha
  Plant response rating, Ryegrass, Italian: 0
[8]; 31 g ai/ha
  Plant response rating, Ryegrass, Italian: 0
[8]; 62 g ai/ha
  Plant response rating, Ryegrass, Italian: 35
[8]; 125 g ai/ha
  Plant response rating, Ryegrass, Italian: 70
[9]; 16 g ai/ha
  Plant response rating, Lambsquarters: 0
[9]; 31 g ai/ha
  Plant response rating, Lambsquarters: 40
[9]; 62 g ai/ha
  Plant response rating, Lambsquarters: 100
[9]; 125 g ai/ha
  Plant response rating, Lambsquarters: 100
[10]; 16 g ai/ha
  Plant response rating, Sandbur: 0
[10]; 31 g ai/ha
  Plant response rating, Sandbur: 0
[10]; 62 g ai/ha
  Plant response rating, Sandbur: 15
[10]; 125 g ai/ha
  Plant response rating, Sandbur: 50
[11]; 16 g ai/ha
  Plant response rating, Waterhemp: 65
[11]; 31 g ai/ha
  Plant response rating, Waterhemp: 80
[11]; 62 g ai/ha
  Plant response rating, Waterhemp: 100
[11]; 125 g ai/ha
  Plant response rating, Waterhemp: 100
Kochia (Kochia scoparia); 16 g ai/ha
  Plant response rating, Kochia: 20
Kochia (Kochia scoparia); 31 g ai/ha
  Plant response rating, Kochia: 50
Kochia (Kochia scoparia); 62 g ai/ha
  Plant response rating, Kochia: 75
Kochia (Kochia scoparia); 125 g ai/ha
  Plant response rating, Kochia: 100
[12]; 16 g ai/ha
  Plant response rating, Field Bindweed: 0
[12]; 31 g ai/ha
  Plant response rating, Field Bindweed: 0
[12]; 62 g ai/ha
  Plant response rating, Field Bindweed: 15
[12]; 125 g ai/ha
  Plant response rating, Field Bindweed: 40
[13]; 16 g ai/ha
  Plant response rating, Goosegrass: 10
[13]; 31 g ai/ha
  Plant response rating, Goosegrass: 50
[13]; 62 g ai/ha
  Plant response rating, Goosegrass: 75
[13]; 125 g ai/ha
  Plant response rating, Goosegrass: 98
[14]; 16 g ai/ha
  Plant response rating, Arrowleaf Sida: 90
[14]; 31 g ai/ha
  Plant response rating, Arrowleaf Sida: 100
[14]; 62 g ai/ha
  Plant response rating, Arrowleaf Sida: 100
[14]; 125 g ai/ha
  Plant response rating, Arrowleaf Sida: 100
[15]; 16 g ai/ha
  Plant response rating, Barnyardgrass: 15
[15]; 31 g ai/ha
  Plant response rating, Barnyardgrass: 20
[15]; 62 g ai/ha
  Plant response rating, Barnyardgrass: 65
[15]; 125 g ai/ha
  Plant response rating, Barnyardgrass: 100
[16]; 16 g ai/ha
  Plant response rating, Ragweed: 0
[16]; 31 g ai/ha
  Plant response rating, Ragweed: 50
[16]; 62 g ai/ha
  Plant response rating, Ragweed: 50
[16]; 125 g ai/ha
  Plant response rating, Ragweed: 98
[17]; 16 g ai/ha
  Plant response rating, Pigweed, Palmer: 0
[17]; 31 g ai/ha
  Plant response rating, Pigweed, Palmer: 60
[17]; 62 g ai/ha
  Plant response rating, Pigweed, Palmer: 100
[17]; 125 g ai/ha
  Plant response rating, Pigweed, Palmer: 100
[18]; 16 g ai/ha
  Plant response rating, Foxtail, Green: 15
[18]; 31 g ai/ha
  Plant response rating, Foxtail, Green: 50
[18]; 62 g ai/ha
  Plant response rating, Foxtail, Green: 70
[18]; 125 g ai/ha
  Plant response rating, Foxtail, Green: 100
[19]; 16 g ai/ha
  Plant response rating, Beggarticks: 0
[19]; 31 g ai/ha
  Plant response rating, Beggarticks: 0
[19]; 62 g ai/ha
  Plant response rating, Beggarticks: 0
[19]; 125 g ai/ha
  Plant response rating, Beggarticks: 0
[20]; 16 g ai/ha
  Plant response rating, Surinam Grass: 0
[20]; 31 g ai/ha
  Plant response rating, Surinam Grass: 10
[20]; 62 g ai/ha
  Plant response rating, Surinam Grass: 0
[20]; 125 g ai/ha
  Plant response rating, Surinam Grass: 50
